Values quoted from earlier work, collected in patent publication US9334250B2, “Multifunctional radical quenchers for the treatment of mitochondrial dysfunction” (Arizona Board of Regents, A Body Corporate of the State of …, priority 2012, dated 2016).

Conditions: James et al. (2005) J Biol. Chem. 280, 21295-21312

- calculated octanol-water partition coefficient: > 1e+20
SMILES: COC1=C(OC)C(=O)C(C/C=C(\C)CC/C=C(\C)CC/C=C(\C)CC/C=C(\C)CC/C=C(\C)CC/C=C(\C)CC/C=C(\C)CC/C=C(\C)CC/C=C(\C)CCC=C(C)C)=C(C)C1=O [coenzyme Q10]
